In ChEMBL document CHEMBL1131402, “Potent piperazine hydroxyethylamine HIV protease inhibitors containing novel P3 ligands” (Bioorg Med Chem Lett, 1998):

Assays:
[1] = test system: Human immunodeficiency virus 1; assay: Anti-HIV activity was determined in MT-4 cells in the presence of 50% human serum using cytopathic effect assay; type: functional, organism-based; settings: Human immunodeficiency virus 1, MT4, Serum
[2] = test system: Human immunodeficiency virus 1; assay: Anti-HIV activity was determined in MT-4 cells in the presence of 0% human serum using cytopathic effect assay; type: functional, organism-based; settings: Human immunodeficiency virus 1, MT4
MT4 [3] = assay: Cytotoxicity against MT-4 cells was determined by using cytopathic effect assay; type: functional, Homo sapiens
[4] = biological target: Human immunodeficiency virus type 1 protease (Human immunodeficiency virus 1) (UniProt Q72874); assay: Inhibition of HIV protease at 0.5 nM
Cytochrome P450 3A4 = Cytochrome P450 3A4 (Homo sapiens, UniProt P08684); assay: […] inhibition of human liver microsomal Cytochrome P450 3A4; type: ADME
[5] = test system: Human immunodeficiency virus 1; assay: Antiviral activity was assessed against K20K/R, 36M/I, 154V, A71A/V, V82T viral strains isolated from patient-129 pretreated with ritonavir(33 fold) at 16th week; type: functional, organism-based
[6] = test system: Human immunodeficiency virus 1; assay: Antiviral activity was assessed against M36M/I, V82F viral strains isolated from patient-313 pretreated with ritonavir(9 fold) at 57th day; type: functional, organism-based
[7] = test system: Human immunodeficiency virus 1; assay: Antiviral activity was assessed against I54I/V, A71V, V82A, L90L/M viral strains isolated from patient-235 pretreated with ritonavir (4 fold) at 36th week; type: functional, organism-based
[8] = test system: Human immunodeficiency virus 1; assay: Antiviral activity was assessed against K20K/R, M36M/I, 154V/I, L63L/P, V82/A viral strains isolated from patient-131 pretreated with ritonavir(20 fold) at 28th week; type: functional, organism-based
[9] = test system: Human immunodeficiency virus 1; assay: Antiviral activity was assessed against M36I, I54V, A71V, V82T viral strains isolated from patient-129 pretreated with ritonavir(14 fold) at 8th week; type: functional, organism-based
[10] = test system: Human immunodeficiency virus 1; assay: Antiviral activity was assessed against M36M/I, I54I/V, V82F/A/S/T viral strains isolated from patient-313 pretreated with ritonavir(14 fold) at 85th day; type: functional, organism-based
[11] = biological target: Human immunodeficiency virus type 1 protease (Human immunodeficiency virus 1) (UniProt Q72874); assay: Compound was tested for the inhibition of HIV protease at 120 nM
MT4 [12] = assay: Cytotoxicity against MT-4 cells was determined by using cytopathic effect assay; NA means not active; type: functional, cell-based, Homo sapiens
MT4 [13] = assay: Anti-HIV activity was determined in MT-4 cells in the presence of 50% human serum using cytopathic effect assay; NA means not active; type: functional, cell-based
MT4 [14] = assay: Anti-HIV activity was determined in MT-4 cells in the presence of 0% human serum using cytopathic effect assay; Not active; type: functional, cell-based
[15] = biological target: Human immunodeficiency virus type 1 protease (Human immunodeficiency virus 1) (UniProt Q72874); assay: Compound was tested for the inhibition of HIV protease at 97 nM
[16] = biological target: Human immunodeficiency virus type 1 protease (Human immunodeficiency virus 1) (UniProt Q72874); assay: Compound was tested for the inhibition of HIV protease at 27 nM

Sequence of Cytochrome P450 3A4 (P08684 whole entry): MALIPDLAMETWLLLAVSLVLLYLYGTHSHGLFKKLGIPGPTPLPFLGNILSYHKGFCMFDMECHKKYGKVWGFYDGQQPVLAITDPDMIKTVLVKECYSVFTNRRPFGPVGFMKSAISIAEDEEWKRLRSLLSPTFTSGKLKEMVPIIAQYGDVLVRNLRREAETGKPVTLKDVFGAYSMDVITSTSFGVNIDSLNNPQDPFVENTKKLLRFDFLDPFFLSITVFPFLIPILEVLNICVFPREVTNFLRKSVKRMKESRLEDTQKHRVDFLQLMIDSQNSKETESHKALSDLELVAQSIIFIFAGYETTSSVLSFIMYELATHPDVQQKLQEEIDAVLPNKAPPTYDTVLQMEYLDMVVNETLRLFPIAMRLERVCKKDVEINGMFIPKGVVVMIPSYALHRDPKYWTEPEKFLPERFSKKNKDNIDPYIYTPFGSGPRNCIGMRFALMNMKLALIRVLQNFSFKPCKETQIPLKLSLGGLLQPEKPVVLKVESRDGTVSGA

SMILES | EC50 [1] [µM] | EC50 [2] [µM] | inhibition [4] [%] | CCIC50 (MT4 [3]) [µM] | other results
CC(C)c1nc(COC(=O)N[C@H](C(=O)N[C@@H](Cc2ccccc2)[C@H](O)CN2CCN(Cc3cccnc3)C[C@H]2C(=O)NC(C)(C)C)C(C)C)cs1 | 0.067 | 0.012 | 69 | 59 | IC50 (Cytochrome P450 3A4): 2.3 µM
CC(C)[C@H](NC(=O)N(C)Cc1cncs1)C(=O)N[C@@H](Cc1ccccc1)[C@H](O)CN1CCN(Cc2cncs2)C[C@H]1C(=O)NC(C)(C)C | 0.211 | 0.259 | 50 | >100 | 
CC(C)c1nc(CN(C)C(=O)N[C@H](C(=O)N[C@@H](Cc2ccccc2)C[C@H](O)[C@H](Cc2ccccc2)NC(=O)OCc2cncs2)C(C)C)cs1 [RITONAVIR] | 0.81 | 0.07 |  | 56 | EC50 [5]: 0.368 µM; EC50 [6]: 0.34 µM; EC50 [7]: 0.087 µM; EC50 [8]: 0.365 µM; EC50 [9]: 0.149 µM; EC50 [10]: 0.575 µM
CC(C)[C@@H](NC(=O)N(C)Cc1cncs1)C(=O)N[C@@H](Cc1ccccc1)[C@H](O)CN1CCN(Cc2ccccc2)C[C@H]1C(=O)NC(C)(C)C | 7 | 3 |  | 56 | inhibition [11]: 50%
CC(C)[C@@H](NC(=O)N(C)Cc1cncs1)C(=O)N[C@@H](Cc1ccccc1)[C@H](O)CN1CCN(Cc2cncs2)C[C@H]1C(=O)NC(C)(C)C |  |  |  |  | EC50 (MT4 [12]): Not Active; EC50 (MT4 [13]): Not Active; EC50 (MT4 [14]): Not Active; inhibition [15]: 50%
CC(C)c1nc(CN(C)C(=O)N[C@H](C(=O)N[C@@H](Cc2ccccc2)[C@H](O)CN2CCN(Cc3ccccc3)C[C@H]2C(=O)NC(C)(C)C)C(C)C)cs1 | 0.306 | 0.048 | 66 | 56 | 
CC(C)c1nc(COC(=O)N[C@H](C(=O)N[C@@H](Cc2ccccc2)[C@H](O)CN2CCN(Cc3cncs3)C[C@H]2C(=O)NC(C)(C)C)C(C)C)cs1 | 0.067 | 0.012 | 67 | 57 | IC50 (Cytochrome P450 3A4): 15 µM
CC(C)c1nc(CN(C)C(=O)N[C@H](C(=O)N[C@@H](Cc2ccccc2)[C@H](O)CN2CCN(Cc3cncs3)C[C@H]2C(=O)NC(C)(C)C)C(C)C)cs1 | 0.084 | 0.013 | 60 | >100 | 
CC(C)c1nc(COC(=O)N[C@@H](C(=O)N[C@@H](Cc2ccccc2)[C@H](O)CN2CCN(Cc3cncs3)C[C@H]2C(=O)NC(C)(C)C)C(C)C)cs1 | 26 | 6 |  | 18 | inhibition [16]: 50%
CC(C)c1nc(COC(=O)N[C@H](C(=O)N[C@@H](Cc2ccccc2)[C@H](O)CN2CCN(Cc3nc4ccccc4[nH]3)C[C@H]2C(=O)NC(C)(C)C)C(C)C)cs1 | 1.05 | 0.046 | 65 | 18 | 
CC(C)c1nc(COC(=O)N[C@H](C(=O)N[C@@H](Cc2ccccc2)[C@H](O)CN2CCN(Cc3cccc4c3COC4)C[C@H]2C(=O)NC(C)(C)C)C(C)C)cs1 | 0.042 | 0.005 | 69 | 18 | IC50 (Cytochrome P450 3A4): 12 µM
CC(C)[C@H](NC(=O)OCc1cncs1)C(=O)N[C@@H](Cc1ccccc1)[C@H](O)CN1CCN(Cc2cncs2)C[C@H]1C(=O)NC(C)(C)C | 0.075 | 0.057 | 45 | >100 | 

Continued, in another order:

EC50 [1] [µM] | EC50 [2] [µM] | inhibition [4] [%] | SMILES | CCIC50 (MT4 [3]) [µM] | other results
0.132 | 0.016 | 37 | CCc1ncc(COC(=O)N[C@H](C(=O)N[C@@H](Cc2ccccc2)[C@H](O)CN2CCN(Cc3ccc(OC)c(OC)c3)C[C@H]2C(=O)NC(C)(C)C)C(C)C)s1 | 50 | IC50 (Cytochrome P450 3A4): 35 µM
0.08 | 0.022 | 61 | CC(C)c1nc(COC(=O)N[C@H](C(=O)N[C@@H](Cc2ccccc2)[C@H](O)CN2CCN(Cc3ccccc3)C[C@H]2C(=O)NC(C)(C)C)C(C)C)cs1 | 45 | 
0.174 | 0.021 | 64 | CC(C)c1nc(COC(=O)N[C@H](C(=O)N[C@@H](Cc2ccccc2)[C@H](O)CN2CCN(Cc3ccc(F)cc3)C[C@H]2C(=O)NC(C)(C)C)C(C)C)cs1 | 15 | 
0.071 | 0.011 | 50 | Cc1nc(COC(=O)N[C@H](C(=O)N[C@@H](Cc2ccccc2)[C@H](O)CN2CCN(Cc3ccc(F)cc3)C[C@H]2C(=O)NC(C)(C)C)C(C)C)cs1 | 39 | 
0.142 | 0.04 | 53 | CC(C)c1nc(COC(=O)N[C@H](C(=O)N[C@@H](Cc2ccccc2)[C@H](O)CN2CCN(Cc3cccc(O)c3)C[C@H]2C(=O)NC(C)(C)C)C(C)C)cs1 | 17 | 
0.074 | 0.011 | 45 | Cc1nc(COC(=O)N[C@H](C(=O)N[C@@H](Cc2ccccc2)[C@H](O)CN2CCN(Cc3ccc4c(c3)OCO4)C[C@H]2C(=O)NC(C)(C)C)C(C)C)cs1 | 56 | 
0.059 | 0.011 | 44 | COc1ccc(CN2CCN(C[C@@H](O)[C@H](Cc3ccccc3)NC(=O)[C@@H](NC(=O)OCc3cnc(C)s3)C(C)C)[C@H](C(=O)NC(C)(C)C)C2)cc1OC | 53 | 
0.042 | 0.019 | 82 | CCc1nc(COC(=O)N[C@H](C(=O)N[C@@H](Cc2ccccc2)[C@H](O)CN2CCN(Cc3ccc(OC)c(OC)c3)C[C@H]2C(=O)NC(C)(C)C)C(C)C)cs1 | 45 | 
0.104 | 0.017 | 40 | CC(C)[C@H](NC(=O)OCc1cncs1)C(=O)N[C@@H](Cc1ccccc1)[C@H](O)CN1CCN(Cc2ccccc2)C[C@H]1C(=O)NC(C)(C)C | 53 | 
0.076 | 0.017 | 73 | CC(C)c1nc(COC(=O)N[C@H](C(=O)N[C@@H](Cc2ccccc2)[C@H](O)CN2CCN(Cc3ccncc3)C[C@H]2C(=O)NC(C)(C)C)C(C)C)cs1 | 56 | 
0.042 | 0.01 | 49 | COc1ccc(CN2CCN(C[C@@H](O)[C@H](Cc3ccccc3)NC(=O)[C@@H](NC(=O)OCc3csc(C)n3)C(C)C)[C@H](C(=O)NC(C)(C)C)C2)cc1OC | 57 | IC50 (Cytochrome P450 3A4): 120 µM
0.086 | 0.017 | 51 | COc1ccc(CN2CCN(C[C@@H](O)[C@H](Cc3ccccc3)NC(=O)[C@@H](NC(=O)OCc3cnc(C(C)C)s3)C(C)C)[C@H](C(=O)NC(C)(C)C)C2)cc1OC | 21 | 
0.046 | 0.017 | 62 | COc1ccc(CN2CCN(C[C@@H](O)[C@H](Cc3ccccc3)NC(=O)[C@@H](NC(=O)OCc3csc(C(C)C)n3)C(C)C)[C@H](C(=O)NC(C)(C)C)C2)cc1OC | 18 | 
0.242 | 0.041 | 63 | COc1cc(CN2CCN(C[C@@H](O)[C@H](Cc3ccccc3)NC(=O)[C@@H](NC(=O)N(C)Cc3csc(C(C)C)n3)C(C)C)[C@H](C(=O)NC(C)(C)C)C2)ccc1O | 20 | 
0.226 | 0.047 | 54 | CC(C)c1nc(COC(=O)N[C@H](C(=O)N[C@@H](Cc2ccccc2)[C@H](O)CN2CCN(Cc3ccc(O)cc3)C[C@H]2C(=O)NC(C)(C)C)C(C)C)cs1 | 19 | 
